In paper PMC4949581 (ACS Chemical Biology, 2016):
Values belong to the molecule of their own block, whether it stands above or below them.

Columns and labels:
Assay type in all cases: biochemical
[1] = biological target: T1, TxGH116 β-glucosidase (Thermoanaerobacterium xylanolyticum, UniProt F6BL85); test: crystal structure
T1 sequence (F6BL85 19-806): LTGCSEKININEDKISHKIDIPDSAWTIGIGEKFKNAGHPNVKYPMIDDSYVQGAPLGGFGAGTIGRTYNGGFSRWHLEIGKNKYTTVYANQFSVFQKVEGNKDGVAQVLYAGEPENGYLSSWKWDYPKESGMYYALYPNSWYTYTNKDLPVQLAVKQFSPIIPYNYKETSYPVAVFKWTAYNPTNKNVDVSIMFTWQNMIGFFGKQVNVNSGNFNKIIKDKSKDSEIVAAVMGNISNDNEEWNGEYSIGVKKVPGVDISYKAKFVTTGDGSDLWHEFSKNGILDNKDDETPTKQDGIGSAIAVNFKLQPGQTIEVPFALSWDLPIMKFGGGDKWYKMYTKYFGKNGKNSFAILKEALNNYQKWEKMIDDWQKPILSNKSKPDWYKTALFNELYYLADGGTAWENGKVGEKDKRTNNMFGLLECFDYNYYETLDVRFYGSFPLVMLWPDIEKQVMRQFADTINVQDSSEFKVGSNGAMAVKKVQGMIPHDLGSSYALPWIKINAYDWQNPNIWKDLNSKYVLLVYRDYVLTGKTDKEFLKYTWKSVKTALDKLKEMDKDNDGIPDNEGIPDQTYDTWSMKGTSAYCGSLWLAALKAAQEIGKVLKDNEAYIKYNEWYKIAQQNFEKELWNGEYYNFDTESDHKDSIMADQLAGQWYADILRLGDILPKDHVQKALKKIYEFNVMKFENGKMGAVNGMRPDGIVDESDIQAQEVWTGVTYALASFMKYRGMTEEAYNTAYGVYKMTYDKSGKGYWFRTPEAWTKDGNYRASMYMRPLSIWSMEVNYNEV

[2] = biological target: T1, TxGH116 β-glucosidase; test: crystal structure; remark: listed apart in the source
[3] = biological target: T1, TxGH116 β-glucosidase; test: inhibition of 4NPGlc hydrolysis, Lineweaver–Burk
[4] = biological target: T1, TxGH116 β-glucosidase; test: inactivation of the purified enzyme

Ki [1]: 0.13 ± 0.01 µM
Structure (SMILES): OC[C@H]1NC[C@H](O)[C@@H](O)[C@@H]1O [DNJ, deoxynojirimycin]

Ki [2]: 4000 ± 300 µM
Structure (SMILES): OC[C@H]1O[C@@H](O)[C@H](O)[C@@H](O)[C@@H]1O [Glc, D-glucose]

Ki [3]: 0.0029 ± 0.0001 µM
Structure (SMILES): OC[C@H]1CNC[C@@H](O)[C@@H]1O [IFG, isofagomine]

Structure (SMILES): OC[C@@H]1[C@@H](O)[C@H](O)[C@@H](O)[C@@H]2O[C@H]12 [cyclophellitol]
inactivation of the purified enzyme [4]: cyclophellitol, a related epoxide that contains a hydroxymethyl group corresponding to the hydroxymethyl group of glucose, rapidly inactivated TxGH116
